Measured values from US20230003721A1, “MITOTHERAPEUTICS FOR THE TREATMENT OF BRAIN DISORDERS” (The University of Florida Research Foundation, Inc., priority 2019, published 2023).
Where a name gives a salt, the structure may show the parent alone.

Assays:
primary neurons [1] = test: TMRM fluorescence assay of inner mitochondrial membrane potential (ΔΨm); details: for hit in TMRM primary screen when assayed at 4 h / TMRM Primary: 12.5 μM; for TMRM Primary: primary screen
Protocol: Mitochondrial dyes. To assay the electrochemical potential across the inner mitochondrial membrane of cultured cells, we used the cell-permeant dye tetramethylrhodamine methyl ester (TMRM). For co-localization studies with Mt-GFP, TMRM was used at 20 nM on DIV14 and incubated for 30 min prior to imaging. For the orthogonal screen of compounds, TMRM was added to primary neurons on DIV13 at 10 nM, one hr prior to pintooling selected compounds, and incubated for 24 hr. Cells were washed 2× with pre-warmed fresh feeding media without B27 before measurements with a plate reader.
(§1) A CLARIOstar (BMG LABTECH) microplate reader was used to measure fluorescence of TMRM and luminescence produced from the ATP.
(§2) Mitochondrial membrane potential (Δψm) and luminescence-based ATP assays. […] Changes of ΔΨm in each well were monitored using the mitochondrial-specific, fluorescent dye TMRM (tetramethyl rhodamine, methyl ester; Molecular Probes) and measured using a CLARIOstar plate reader. […] This concentration was used throughout our experiments. […] Wells in columns 1 and 24 were not loaded with TMRM; these served to measure background signal which was subtracted from the wells to which TMRM was added. To measure the total ATP levels in neurons we utilized the CellTiter-Glo® luminescence-based ATP assay (Promega). DIV13 primary neurons were cultured for 24 h with either DMSO carrier or compound treatment, followed by removing 55 μl culture medium from each well. Plates were maintained at room temperature for 25 m, and 25 μl of CellTiter-Glo® Reagent with the substrate luciferin was then added to each well (Promega). Plates were covered with aluminum foil and shaken vigorously on an orbital shaker for 10 m at 200 rpm and maintained at room temperature for an additional 2 m in dark before being read with the plate reader set to the luminescence mode.
Compound library and hit picking rules. We screened 2400 compounds from the MicroSource Spectrum library. […] FIGS. 13A-13E provide details of the assays used from which hit picking rules were made. In essence, the average fluorescence for each compound in the TMRM assay was determined and compared to the average fluorescence for compounds in the population on each assay plate to produce a Z-score. The Z-scores for each individual compound assayed across the four replicate plates was then averaged.

primary neurons [2] = test: CellTiter-Glo luminescence-based ATP assay; type: cell-based, mouse; details: for ATP: ATP orthogonal screen, 24 h
Protocol: Measurement of ATP production. The total amount of ATP produced by cultured primary neurons was measured by CellTiter-Glo Luminescent Cell Viability Assay (Promega). A recombinant luciferase enzyme catalyzed the mono-oxygenation of luciferin while hydrolyzing ATP produced by the cells and emitting light. We followed the manufacturer's protocol with primary neurons on DIV14.
as §1, §2
Compound library and hit picking rules. We screened 2400 compounds from the MicroSource Spectrum library. […] FIGS. 13A-13E provide details of the assays used from which hit picking rules were made. In essence, the average fluorescence for each compound in the TMRM assay was determined and compared to the average fluorescence for compounds in the population on each assay plate to produce a Z-score. The Z-scores for each individual compound assayed across the four replicate plates was then averaged. Because of significant well location effects (outer rows) on each assay plate (FIG. 13G), we selected primary hits as enhancing well fluorescence above the μplate by 3σplate for inner row wells (rows C-N, columns 3-22), and by 2.5σplate for outer row wells (rows A, B, O, P; columns 3-22) (FIG. 14C-D). […] All orthogonal assays employed inner wells of the 384-well plates.

[3] = maximal percent increase relative to in-plate DMSO controls, dose response

Compound | TMRM Primary (primary neurons [1]; 24 h) | TMRM Rescreen (primary neurons [1]; 24 h) | ATP (primary neurons [2]) | other results
CC(=O)OCC(=O)[C@H]1CC[C@H]2[C@@H]3CCC4=CC(=O)CC[C@]4(C)[C@H]3CC[C@]12C [desoxycorticosterone acetate] | 2.81 Z-scores | 1.08 Z-scores | 3.62 Z-scores | hit in TMRM primary screen when assayed at 4 h (primary neurons [1]): desoxycorticosterone acetate*
CN(C)CCCN1c2ccccc2CCc2ccccc21 [imipramine hydrochloride] | 3.31 Z-scores | 0.91 Z-scores | 5.10 Z-scores | 
CC(C)NC[C@@H](O)COc1cccc2ccccc12.Cl [dexpropranolol hydrochloride [R(+)]] | 4.37 Z-scores | 4.79 Z-scores | 6.22 Z-scores | 
CC1(C)[C@H](O)CC(=O)[C@]2(C)[C@H]3CC[C@@]4(C)[C@H](c5ccoc5)OC(=O)[C@H]5O[C@]54[C@]3(C)C(=O)C[C@@H]12 [1,7-dideacetoxy-1,7-dioxo-3-deacetylkhivorin] | 3.65 Z-scores | 4.00 Z-scores | 5.46 Z-scores | 
CCN(CC)CCOc1ccc(C(=C(Cl)c2ccccc2)c2ccccc2)cc1 [clomiphene citrate] | 2.94 Z-scores | 3.45 Z-scores | 4.20 Z-scores | 
COc1cc2nc(N3CCN(C(=O)C4COc5ccccc5O4)CC3)nc(N)c2cc1OC (stereo not shown) [doxazosin mesylate] | 4.39 Z-scores | 5.94 Z-scores | 4.68 Z-scores | 
CCOC(=O)C1=C[C@]2(CC)CCCN3CCc4c(n1c1ccccc41)[C@@H]32 [vinpocetine] | 5.76 Z-scores | 6.16 Z-scores | 6.29 Z-scores | 
C[C@]12CC[C@@H]3c4ccc(O)cc4CC[C@H]3[C@@H]1CC[C@@H]2OC(=O)CCC1CCCC1 [estradiol cypionate] | 2.59 Z-scores | 4.67 Z-scores | 2.98 Z-scores | 
CCOC(=O)C1=C(C)NC(C)=C(C(=O)OC)C1c1cccc(Cl)c1Cl (stereo not shown) [felodipine] | 3.80 Z-scores | 2.41 Z-scores | 5.08 Z-scores | 
Cc1ccc(C(=O)C(C)CN2CCCCC2)cc1 (stereo not shown) [tolperisone hydrochloride] | 3.57 Z-scores | 3.67 Z-scores | 5.49 Z-scores | 
CCNC1(c2cccs2)CCCCC1=O.Cl (stereo not shown) [tiletamine hydrochloride] | 3.31 Z-scores | 4.20 Z-scores | 6.27 Z-scores | 
pizotyline malate | 3.21 Z-scores | 5.84 Z-scores | 7.13 Z-scores | TMRM (Effect-size) (primary neurons [1]; [3]): 25.2%; EC50 (primary neurons [1]; read-out: TMRM-EC50, dose response, 15 concentrations from 6 nM to 100 uM): 2600 nM; EC50 (primary neurons [2]; dose response, 15 concentrations from 6 nM to 100 uM): 360 nM; ATP (Effect-size) (primary neurons [2]; [3]): 17.9%
COc1cc(O)c2c(=O)cc(C)oc2c1CC=C(C)C [heteropeucenin, methyl ether] | 3.45 Z-scores | 4.33 Z-scores | 5.92 Z-scores | 
COC(=O)C[C@H]1C2(C)CC34OC5(C)O[C@@]6([C@H](OC(C)=O)C(OC(C)=O)[C@]7(C)C(/C(=C(/O)C(C)C)C(=O)O[C@H]7c7ccoc7)[C@@]6(O5)[C@H](OC(C)=O)[C@@]3(O)C2OC(=O)C(C)C)[C@]14C (stereo partly shown) [bussein] | 3.44 Z-scores | 3.92 Z-scores | 5.58 Z-scores | 
CCN(CC)CCNc1ccc(CO)c2sc3ccccc3c(=O)c12 [hycanthone] | 4.40 Z-scores | 5.48 Z-scores | 4.61 Z-scores | 
Fc1ccc([C@@H]2CCNC[C@H]2COc2ccc3c(c2)OCO3)cc1 [paroxetine hydrochloride] | 3.53 Z-scores | 3.26 Z-scores | 4.41 Z-scores | 

Compound | TMRM Primary (primary neurons [1]; 24 h) | TMRM Rescreen (primary neurons [1]; 24 h) | ATP (primary neurons [2]) | other results
CCN(CC)CCOC(=O)C(c1ccccc1)C1CCCCC1 (stereo not shown) [drofenine hydrochloride] | 3.68 Z-scores | 5.96 Z-scores | 4.84 Z-scores | 
COc1ccc(CN(CCN(C)C)c2ncccn2)cc1 [thonzylamine hydrochloride] | 3.16 Z-scores | 3.21 Z-scores | 5.17 Z-scores | 
butacaine sulfate | 3.85 Z-scores | 5.06 Z-scores | 6.99 Z-scores | 
CN(C)CCCN1c2ccccc2Sc2ccccc21 [promazine hydrochloride] | 3.81 Z-scores | 4.04 Z-scores | 4.76 Z-scores | 
CC(C)(c1ccc(O)cc1)c1ccc(O)cc1 [bisphenol a] | 3.35 Z-scores | 7.40 Z-scores | 4.73 Z-scores | hit in TMRM primary screen when assayed at 4 h (primary neurons [1]): bisphenol a*
trimeprazine tartrate | 3.13 Z-scores | 3.94 Z-scores | 5.75 Z-scores | 
CN(C)CCCN1c2ccccc2Sc2ccc(Cl)cc21 [chlorpromazine] | 2.79 Z-scores | 2.66 Z-scores | 5.00 Z-scores | 
C=C[C@](C)(O)CC[C@@H]1[C@@]2(C)CCCC(C)(C)[C@@H]2CC[C@@]1(C)O [sclareol] | 2.80 Z-scores | 5.41 Z-scores | 4.64 Z-scores | 
CCN(CC)C(=O)[C@@]1(c2ccccc2)C[C@H]1CN [levomilnacipran hydrochloride] | 3.26 Z-scores | 3.53 Z-scores | 3.87 Z-scores | 
COc1cc2oc3cc(OC)c(OC)c(CC=C(C)C)c3c(=O)c2c(O)c1CC=C(C)C [1-hydroxy-3,6,7-trimethoxy-2,8-diprenylxanthone] | 3.34 Z-scores | 3.27 Z-scores | 5.44 Z-scores | 
CCCCOC(=O)c1ccc(O)cc1 [butyl paraben] | 3.42 Z-scores | 4.18 Z-scores | 3.84 Z-scores | 
CCCCCCCCCCC[C@@H](C[C@@H]1OC(=O)[C@H]1CCCCCC)OC(=O)[C@H](CC(C)C)NC=O [orlistat] | 3.43 Z-scores | 1.56 Z-scores | 2.36 Z-scores | 
CN1CCC[C@@H]1CCO[C@](C)(c1ccccc1)c1ccc(Cl)cc1 [clemastine fumarate] | 2.82 Z-scores | 3.22 Z-scores |  | 
CC(C)(C)OO [Peroxide, tert-butyl hydroperoxide] |  |  |  | reduction of whole well TMRM fluorescence (primary neurons [1]; 50 μM, 24 h, DIV14 neuronal cultures): ~40%
CNCCC(Oc1ccc(C(F)(F)F)cc1)c1ccccc1 (stereo not shown) [fluoxetine hydrochloride] |  |  | 3.70 Z-scores | 
